Test results reported in patent US12428406B2 (PMV Pharmaceuticals, Inc., priority 2019, dated 2025).

Biological target: T1, p53 Y220C (Homo sapiens, UniProt P04637, Y220C)
T1 construct: The recombinant protein was a truncation mutant containing only amino acids 94-312 of p53; made in house; host or cells: E. coli
Assay: In vitro DNA binding activity assay (HTRF / TR-FRET): stabilization of p53 Y220C and increase of its DNA binding activity
Type: biochemical
Conditions: recombinant His-tagged p53 Y220C DNA binding domain (aa 94-312), biotin-labeled consensus DNA, incubated at 27° C. or 29° C. for 60 min
Outline: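 Homogeneous time-resolved fluorescence with E. coli-derived p53 Y220C and biotinylated consensus DNA. Room-temperature incubations of 15 and 20 min precede reading. SC150 denotes the compound concentration required for 50% increased DNA binding.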

T1 sequence (P04637 94-312, change not shown): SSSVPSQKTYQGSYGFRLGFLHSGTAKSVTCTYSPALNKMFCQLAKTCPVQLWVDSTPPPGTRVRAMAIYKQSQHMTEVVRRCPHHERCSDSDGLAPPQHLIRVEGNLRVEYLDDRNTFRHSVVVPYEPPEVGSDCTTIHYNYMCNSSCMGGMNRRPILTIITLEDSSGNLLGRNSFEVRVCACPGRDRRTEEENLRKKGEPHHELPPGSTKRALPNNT

| SMILES | SC150 (concentration of the compound required to increase the DNA binding activity by 50%) |
| --- | --- |
| COC(=O)c1ccc(NCC#Cc2cc3c(N[C@@H]4CCN(CCO)C[C@@H]4F)cccc3n2CC(F)(F)F)c(OC)c1 [Compound 899A, methyl 4-{[3-(4-{[(3S,4R)-3-fluoro-1-(2-hydroxyethyl)piperidin-4-yl]amino}-1-(2,2,2-trifluoroethyl)-1H-indol-2-yl)prop-2-yn-1-yl]amino}-3-methoxybenzoate] | + (+ = 0 μM ≤ SC150 < 0.05 μM) |
| COc1cc(S(C)(=O)=O)ccc1NCC#Cc1cc2c(N[C@H]3CC[C@H](N4CCCC4)CC3)cccc2n1CC(F)(F)F [Compound 424A, 2-{3-[(4-methane-sulfonyl-2-methoxy-phenyl)amino]prop-1-yn-1-yl}-N-[(1R,4R)-4-(pyrrolidin-1-yl)cyclohexyl]-1-(2,2,2-trifluoroethyl)-1H-indol-4-amine] | + (+ = 0 μM ≤ SC150 < 0.05 μM) |
| COc1cc(S(=O)(=O)NC(C)=O)ccc1NCC#Cc1cc2c(N[C@H]3CC[C@H](N(C)C)CC3)cccc2n1CC(F)(F)F [Compound 83A, N-(3-methoxy-4-{[3-(4-{[(1R,4R)-4-(dimethylamino)cyclohexyl]amino}-1-(2,2,2-trifluoroethyl)-1H-indol-2-yl)prop-2-yn-1-yl]amino}benzenesulfonyl)acetamide] | + (+ = 0 μM ≤ SC150 < 0.05 μM) |
| COCCCN1CCC(Nc2cccc3c2cc(C#CCNc2ccc(S(C)(=O)=O)cc2OC)n3CC(F)(F)F)CC1 [Compound 675A, 2-{3-[(4-methanesulfonyl-2-methoxyphenyl)amino]prop-1-yn-1-yl}-N-[1-(3-methoxypropyl)piperidin-4-yl]-1-(2,2,2-trifluoroethyl)-1H-indol-4-amine] | + (+ = 0 μM ≤ SC150 < 0.05 μM) |
| CN[C@H]1CC[C@@H](Nc2cccc3c2cc(C#CCNc2ccc(S(C)(=O)=O)cc2OC)n3CC(F)(F)F)[C@H](F)C1 [Compound 937A] | + (+ = 0 μM ≤ SC150 < 0.05 μM) |
| COc1cc(S(C)(=O)=O)ccc1NCC#Cc1cc2c(N[C@H]3CC[C@H](N4CC5(CCCOC5)C4)CC3)cccc2n1CC(F)(F)F [Compound 322A, 2-{3-[(4-methane-sulfonyl-2-methoxy-phenyl)amino]prop-1-yn-1-yl}-N-[(1R,4R)-4-{6-oxa-2-azaspiro[3.5]nonan-2-yl}cyclohexyl]-1-(2,2,2-trifluoroethyl)-1H-indol-4-amine] | + (+ = 0 μM ≤ SC150 < 0.05 μM) |
| CNC(=O)c1ccc(NCC#Cc2cc3c(N[C@H]4CC[C@@H](N(C)C)CC4)cccc3n2CC(F)(F)F)c(OCF)c1 [Compound 107A, 3-(fluoromethoxy)-N-methyl-4-{[3-(4-{[(1S,4S)-4-(dimethyl-amino)cyclohexyl]amino}-1-(2,2,2-trifluoro-ethyl)-1H-indol-2-yl)prop-2-yn-1-yl]amino}benzamide] | + (+ = 0 μM ≤ SC150 < 0.05 μM) |
| CNC(=O)c1ccc(NCC#Cc2cc3c(N[C@H]4CCN(C(C)(C)C)C[C@H]4F)cccc3n2CC(F)(F)F)c(OC)c1 [Compound 1073A, 4-{[3-(4-{[(3R,4S)-1-tert-butyl-3-fluoropiperidin-4-yl]amino}-1-(2,2,2-trifluoroethyl)-1H-indol-2-yl)prop-2-yn-1-yl]amino}-3-methoxy-N-methylbenzamide] | + (+ = 0 μM ≤ SC150 < 0.05 μM) |
| COc1cc(C(=O)O)ccc1NCC#Cc1cc2c(N[C@H]3CCN(C)C[C@H]3F)cccc2n1CC(F)(F)F [Compound 780A, 4-{[3-(4-{[(3R,4S)-3-fluoro-1-methylpiperidin-4-yl]amino}-1-(2,2,2-trifluoroethyl)-1H-indol-2-yl)prop-2-yn-1-yl]amino}-3-methoxybenzoic acid] | + (+ = 0 μM ≤ SC150 < 0.05 μM) |
| COCC(O)CN1CCC(Nc2cccc3c2cc(C#CCNc2ccc(S(C)(=O)=O)cc2)n3CC(F)(F)F)CC1 (stereo not drawn) [Compound 672A, 1-{4-[(2-{3-[(4-methanesulfonylphenyl)amino]prop-1-yn-1-yl}-1-(2,2,2-trifluoroethyl)-1H-indol-4-yl)amino]piperidin-1-yl}-3-methoxypropan-2-ol] | + (+ = 0 μM ≤ SC150 < 0.05 μM) |
| COCC(O)CN1CCC(Nc2cccc3c2cc(C#CCNc2ccc(C(F)(F)F)cc2OC)n3CC(F)(F)F)CC1 (stereo not drawn) [Compound 689A, 1-methoxy-3-(4-{[2-(3-{[2-methoxy-4-(trifluoromethyl)phenyl]amino}prop-1-yn-1-yl)-1-(2,2,2-trifluoroethyl)-1H-indol-4-yl]amino}piperidin-1-yl)propan-2-ol] | +++ (+++ = 0.1 μM ≤ SC150 < 0.2 μM) |
| CCCn1c(C#CCNc2ccc(S(C)(=O)=O)cc2OC)cc2c(N[C@H]3CC[C@H](N4CCOCC4)CC3)cccc21 [Compound 178A, 2-{3-[(4-methane-sulfonyl-2-methoxy-phenyl)amino]prop-1-yn-1-yl}-1-propyl-N-[(1R,4R)-4-(morpholin-4-yl)cyclohexyl]-1H-indol-4-amine] | + (+ = 0 μM ≤ SC150 < 0.05 μM) |
| CCS(=O)(=O)c1ccc(NCC#Cc2cc3c(NC4CCN(CC(O)COC)CC4)cccc3n2CC(F)(F)F)c(OC)c1 (stereo not drawn) [Compound 662A, 1-(4-{[2-(3-{[4-(ethanesulfonyl)-2-methoxyphenyl]amino}prop-1-yn-1-yl)-1-(2,2,2-trifluoroethyl)-1H-indol-4-yl]amino}piperidin-1-yl)-3-methoxypropan-2-ol] | + (+ = 0 μM ≤ SC150 < 0.05 μM) |
| COCCN1CC[C@@H](Nc2cccc3c2cc(C#CCNc2ccc(C(=O)OC)cc2OC)n3CC(F)(F)F)[C@@H](F)C1 [Compound 897A] | + (+ = 0 μM ≤ SC150 < 0.05 μM) |
| COCCN1CC[C@@H](Nc2cccc3c2cc(C#CCNc2ccc(S(C)(=O)=O)cc2OC)n3CC(F)(F)F)[C@@H](F)C1 [Compound 859A, N-[(3S,4R)-3-fluoro-1-(2-methoxyethyl)piperidin-4-yl]-2-{3-[(4-methanesulfonyl-2-methoxyphenyl)amino]prop-1-yn-1-yl}-1-(2,2,2-trifluoroethyl)-1H-indol-4-amine] | + (+ = 0 μM ≤ SC150 < 0.05 μM) |
| COc1cc(S(C)(=O)=O)ccc1NCC#Cc1cc2c(NC3CCN(C(=O)CN(C)C)CC3)cccc2n1CC(F)(F)F [Compound 750A] | + (+ = 0 μM ≤ SC150 < 0.05 μM) |
| COc1cc(S(C)(=O)=O)ccc1NCC#Cc1cc2c(N[C@H]3CCN(C(=O)CN)C[C@H]3F)cccc2n1CC(F)(F)F [Compound 892A] | + (+ = 0 μM ≤ SC150 < 0.05 μM) |
| COc1cc(S(C)(=O)=O)ccc1NCC#Cc1cc2c(NC3CCN(C[C@@H]4COC(=O)O4)CC3)cccc2n1CC(F)(F)F [Compound 563A, (4R)-4-({4-[(2-{3-[(4-methanesulfonyl-2-methoxyphenyl)amino]prop-1-yn-1-yl}-1-(2,2,2-trifluoroethyl)-1H-indol-4-yl)amino]piperidin-1-yl}methyl)-1,3-dioxolan-2-one] | + (+ = 0 μM ≤ SC150 < 0.05 μM) |
| CNC(=O)c1cc(OC)c(NCC#Cc2cc3c(N[C@H]4CCN(C)C[C@H]4F)cccc3n2CC(F)(F)F)cc1F [Compound 827A, 2-fluoro-4-{[3-(4-{[(3R,4S)-3-fluoro-1-methylpiperidin-4-yl]amino}-1-(2,2,2-trifluoroethyl)-1H-indol-2-yl)prop-2-yn-1-yl]amino}-5-methoxy-N-methylbenzamide] | + (+ = 0 μM ≤ SC150 < 0.05 μM) |
| COc1cc(S(C)(=O)=O)ccc1NCC#Cc1cc2c(N[C@@H]3CCCC[C@@H]3N)cccc2n1CC(F)(F)F [Compound 28A, (1R,2S)-N^1-(2-{3-[(4-methanesulfonyl-2-methoxyphenyl)amino]prop-1-yn-1-yl}-1-(2,2,2-trifluoroethyl)-1H-indol-4-yl)cyclo-hexane-1,2-diamine] | ++ (++ = 0.05 μM ≤ SC150 < 0.1 μM) |
| Cc1cc(S(C)(=O)=O)ccc1NCC#Cc1cc2c(N[C@H]3CC[C@H](N(C)C)CC3)cccc2n1CC(F)(F)F [Compound 140A] | + (+ = 0 μM ≤ SC150 < 0.05 μM) |
| COCC(O)CN1CCC(Nc2cccc3c2cc(C#CCNc2ccc(S(C)(=O)=O)cc2OCC(F)(F)F)n3CC(F)(F)F)CC1 (stereo not drawn) [Compound 645A, 1-(4-{[2-(3-{[4-methanesulfonyl-2-(2,2,2-trifluoroethoxy)phenyl]amino}prop-1-yn-1-yl)-1-(2,2,2-trifluoroethyl)-1H-indol-4-yl]amino}piperidin-1-yl)-3-methoxypropan-2-ol] | + (+ = 0 μM ≤ SC150 < 0.05 μM) |
| COc1cc(C(=O)NC[C@H](O)CO)ccc1NCC#Cc1cc2c(N[C@@H]3CCN(C)C[C@@H]3F)cccc2n1CC(F)(F)F [Compound 964A, N-[(2S)-2,3-dihydroxypropyl]-4-{[3-(4-{[(3S,4R)-3-fluoro-1-methylpiperidin-4-yl]amino}-1-(2,2,2-trifluoroethyl)-1H-indol-2-yl)prop-2-yn-1-yl]amino}-3-methoxybenzamide] | + (+ = 0 μM ≤ SC150 < 0.05 μM) |
| CNC(=O)c1ccc(NCC#Cc2cc3c(NC4CCN(C)CC4)cccc3n2CC(F)(F)F)c(OC)c1 [Compound 482A, 3-methoxy-N-methyl-4-[(3-{4-[(1-methylpiperidin-4-yl)amino]-1-(2,2,2-trifluoroethyl)-1H-indol-2-yl}prop-2-yn-1-yl)amino]benzamide] | + (+ = 0 μM ≤ SC150 < 0.05 μM) |
